Values of other authors, collected in patent US11395812B2, “Docetaxel albumin nanoparticle pharmaceutical composition, preparation method therefor and use thereof” (SICHUAN KELUN PHARMACEUTICAL RESEARCH INSTITUTE CO. LTD., priority 2015, dated 2022).

Target: T1, recombinant human cytochrome P4501B1 (hCYP1B1) (Homo sapiens, UniProt Q16678)
T1 sequence (Q16678 1-543): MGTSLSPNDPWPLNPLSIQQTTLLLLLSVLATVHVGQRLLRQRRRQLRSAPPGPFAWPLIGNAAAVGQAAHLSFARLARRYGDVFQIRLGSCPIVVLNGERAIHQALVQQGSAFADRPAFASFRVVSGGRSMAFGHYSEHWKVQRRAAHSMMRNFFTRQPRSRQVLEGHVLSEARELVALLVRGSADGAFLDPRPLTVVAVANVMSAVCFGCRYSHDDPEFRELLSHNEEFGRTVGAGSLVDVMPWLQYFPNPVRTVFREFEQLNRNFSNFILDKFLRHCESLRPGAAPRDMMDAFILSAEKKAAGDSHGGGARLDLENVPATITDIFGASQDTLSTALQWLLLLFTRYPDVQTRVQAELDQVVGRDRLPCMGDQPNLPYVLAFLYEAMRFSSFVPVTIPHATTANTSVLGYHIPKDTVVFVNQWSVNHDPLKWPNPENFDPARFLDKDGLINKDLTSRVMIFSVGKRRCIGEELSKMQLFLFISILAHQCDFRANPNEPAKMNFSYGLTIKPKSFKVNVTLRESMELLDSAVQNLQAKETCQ
Settings: in vitro test

increase of the activity of hCYP1B1: more than 7 times
Compound: CC(=O)O[C@@]12CO[C@@H]1C[C@@H](O)[C@@]1(C)C(=O)[C@H](O)C3=C(C)[C@@H](OC(=O)[C@H](O)[C@@H](NC(=O)OC(C)(C)C)c4ccccc4)C[C@@](O)([C@@H](OC(=O)c4ccccc4)[C@H]21)C3(C)C [7-epi-docetaxel]
